Data: the supplement of paper PMC11616607

What was measured:
Assay in all cases: drug sensitivity score (DSS) from 5-point dose-response viability curve (DSS (area-under-curve based score)); higher = more sensitive (stronger growth inhibition or killing); extreme values may be limits of the assay
Conditions in all cases: exposure time: 72 h; concentration range: 5 concentrations over 10,000-fold range
[1] = test system: OVCAR5
Outline: (§1)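 Viability of ovarian cancer and normal ovarian cell lines was read by CellTiter-Glo luminescence after 3 days at 37°C and 5% CO2 in 384-well plates holding 1,500 cells per well. Drugs had been dispensed in DMSO or water with an Echo 550 at five concentrations over a 10,000-fold range. Using Breeze software, a drug sensitivity score was assigned per cell line and drug, higher scores meaning more sensitive, and zero means no response.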

[2] = test system: Ovsaho
Outline: as §1

[3] = test system: JHOS2
Outline: as §1

[4] = test system: OVCAR4
Outline: as §1

[5] = test system: OVCAR8
Outline: as §1

[6] = test system: OV90
Outline: as §1

[7] = test system: COV362
Outline: as §1

[8] = test system: HOSE2C
Outline: as §1

[9] = test system: COV318
Outline: as §1

[10] = test system: CAOV3
Outline: as §1

[11] = test system: Kuramochi
Outline: as §1

[12] = test system: HOSE1C
Outline: as §1

| SMILES | drug sensitivity score [1] | drug sensitivity score [2] | drug sensitivity score [3] | drug sensitivity score [4] | drug sensitivity score [5] | drug sensitivity score [6] | drug sensitivity score [7] | drug sensitivity score [8] | drug sensitivity score [9] | drug sensitivity score [10] | drug sensitivity score [11] | drug sensitivity score [12] |
| --- | --- | --- | --- | --- | --- | --- | --- | --- | --- | --- | --- | --- |
| COc1ccc(-c2ccc3ncc4c(c3c2)n(-c2ccc(N3CCNCC3)c(C(F)(F)F)c2)c(=O)n4C)cn1 [NVP-BGT226] | 14.6 | 15.6 | 11.6 | 13.6 | 14.9 | 17.2 | 4.6 | 15.7 | 9.3 | 12.7 | 10.2 | 22.2 |
| Cc1ccc(C(=O)Nc2cccc(C(F)(F)F)c2)cc1Nc1nc(-c2cccnc2)nc2c1cnn2C [NVP-BHG712] | 8.8 | 2.9 | 2.1 | 1.4 | 4.9 | 0.1 | 5.6 | 2.7 | 2.8 | 0 | 2.5 | 2.2 |
| COc1cc2c(cc1OC(C)C)[C@H](c1ccc(Cl)cc1)N(c1ccc(N(C)C[C@H]3CC[C@H](N4CCN(C)C(=O)C4)CC3)cc1)C(=O)C2 [NVP-CGM097] | 7.2 | 5.8 | 6.4 | 5 | 5.7 | 5.4 | 4.6 | 16.5 | 5.9 | 3.3 | 5.5 | 11.4 |
| CN[C@@H](C)C(=O)N[C@H](C(=O)N1CCC[C@H]1c1nc(C(=O)c2ccc(F)cc2)cs1)C1CCCCC1 [NVP-LCL161] | 4.1 | 8.6 | 9.1 | 16.4 | 8.5 | 5 | 1.9 | 0 | 0.8 | 14.4 | 1.9 | 0.7 |
| Cn1c(Nc2ccc(C(F)(F)F)cc2)nc2cc(Oc3ccnc(-c4ncc(C(F)(F)F)[nH]4)c3)ccc21 [NVP-RAF265] | 0.4 | 1.7 | 1.2 | 0.3 | 1.9 | 4.2 | 0 | 4.5 | 0 | 2.2 | 0 | 6.9 |
| CC(=O)c1cc2c(o1)C(=O)c1ccccc1C2=O [Napabucasin] | 21.3 | 17.3 | 18.6 | 19 | 16.3 | 17.9 | 12.4 | 24.2 | 16.2 | 18.2 | 16.7 | 28.9 |
| CC1(C)CCC(c2ccc(Cl)cc2)=C(CN2CCN(c3ccc(C(=O)NS(=O)(=O)c4ccc(N[C@H](CCN5CCOCC5)CSc5ccccc5)c(S(=O)(=O)C(F)(F)F)c4)cc3)CC2)C1 [Navitoclax] | 0.9 | 3 | 0 | 2 | 0 | 10.2 | 0 | 5.9 | 0 | 2.6 | 0 | 24.2 |
| CN1C(=O)N[C@H](Cc2c[nH]c3c(Cl)cccc23)C1=O [Necrostatin 2] | 0 | 0 | 0 | 0 | 0 | 0 | 0 | 0 | 0 | 0 | 0 | 0 |
| O=c1ncn2nc(Sc3ccc(F)cc3F)ccc2c1-c1c(Cl)cccc1Cl [Neflamapimod] | 0.8 | 0 | 0 | 0.4 | 0.9 | 0.4 | 0 | 0 | 0.8 | 0 | 2 | 0.1 |
| COc1nc(N)nc2c1ncn2[C@@H]1O[C@H](CO)[C@@H](O)[C@@H]1O [Nelarabine] | 0 | 0 | 0 | 0 | 0 | 1.7 | 0 | 0 | 0 | 0 | 0 | 0 |
| CCOc1cc2ncc(C#N)c(Nc3ccc(OCc4ccccn4)c(Cl)c3)c2cc1NC(=O)/C=C/CN(C)C [Neratinib] | 2.9 | 0 | 1.4 | 0.6 | 4.8 | 0 | 0 | 1 | 0 | 5.3 | 0.4 | 0 |
| Cc1cn(-c2cc(NC(=O)c3ccc(C)c(Nc4nccc(-c5cccnc5)n4)c3)cc(C(F)(F)F)c2)cn1 [Nilotinib] | 2 | 0 | 0 | 0.9 | 3.4 | 0 | 1.2 | 0 | 0.1 | 0 | 0 | 0 |
| CC1(C)NC(=O)N(c2ccc([N+](=O)[O-])c(C(F)(F)F)c2)C1=O [Nilutamide] | 0.1 | 0 | 0.6 | 0 | 0 | 0 | 0 | 0 | 0 | 0 | 1.6 | 0.8 |
| COC(=O)c1ccc2c(c1)NC(=O)/C2=C(\Nc1ccc(N(C)C(=O)CN2CCN(C)CC2)cc1)c1ccccc1 [Nintedanib] | 7.9 | 5.5 | 0.6 | 3.6 | 3.2 | 3.5 | 1.8 | 6.3 | 2.5 | 0.2 | 4.2 | 3.1 |
| NC(=O)c1cccc2cn(-c3ccc([C@@H]4CCCNC4)cc3)nc12 [Niraparib] | 2.6 | 2.1 | 1.5 | 0 | 4.1 | 1.7 | 0 | 1.9 | 1.1 | 3.4 | 1 | 3.9 |
| CC(=O)c1cnc2ccc(-c3cc(Cl)c(O)c(Cl)c3)nc2c1N[C@H]1CC[C@H](CN(C)C)CC1 [OTS167] | 11.8 | 9.1 | 13.4 | 7.5 | 13.6 | 7.5 | 5.4 | 12.4 | 15.1 | 13.2 | 10.6 | 19.8 |
| O=C(c1cc(Cc2n[nH]c(=O)c3ccccc23)ccc1F)N1CCN(C(=O)C2CC2)CC1 [Olaparib] | 2 | 2.1 | 4.6 | 1.9 | 4.9 | 5.4 | 0.3 | 2.5 | 2.9 | 4.7 | 3.4 | 0.8 |
| C=CC(=O)Nc1cccc(Oc2nc(Nc3ccc(N4CCN(C)CC4)cc3)nc3ccsc23)c1 [Olmutinib] | 0.7 | 0.5 | 0 | 0.1 | 0 | 0 | 0.6 | 0 | 0.3 | 0.3 | 0.7 | 0 |
| COC(=O)C[C@](O)(CCCC(C)(C)O)C(=O)O[C@@H]1C(OC)=C[C@]23CCCN2CCc2cc4c(cc2[C@H]13)OCO4 [Omacetaxine] | 23.4 | 19.5 | 19.3 | 20.9 | 24.1 | 23.3 | 19.2 | 18.6 | 17.4 | 28.7 | 18.3 | 31 |
| CC1(C)CC[C@]2(NC(=O)C(C)(F)F)CC[C@]3(C)[C@H](C(=O)C=C4[C@@]5(C)C=C(C#N)C(=O)C(C)(C)[C@@H]5CC[C@]43C)[C@@H]2C1 [Omaveloxolone] | 13.7 | 19.6 | 13.3 | 18.6 | 18.9 | 18.8 | 9.2 | 16.3 | 10.5 | 17.4 | 14.3 | 16.5 |
| COc1ncc(-c2ccc3nccc(-c4ccnnc4)c3c2)cc1NS(=O)(=O)c1ccc(F)cc1F [Omipalisib] | 18.9 | 10.4 | 10.1 | 12.7 | 13.3 | 8.6 | 6.7 | 18.1 | 10.7 | 16.9 | 16.2 | 16.6 |
| CC(C)c1cc(C(=O)N2Cc3ccc(CN4CCN(C)CC4)cc3C2)c(O)cc1O [Onalespib] | 10.6 | 3.1 | 12.8 | 6.7 | 16.4 | 14.6 | 7.7 | 11.7 | 5 | 11.6 | 6.6 | 9.2 |
| COC[C@H](NC(=O)c1cnc(C)s1)C(=O)N[C@@H](COC)C(=O)N[C@@H](Cc1ccccc1)C(=O)[C@@]1(C)CO1 [Oprozomib] | 15.4 | 16.1 | 23.9 | 15.2 | 12.6 | 21.4 | 15.1 | 17.1 | 24.5 | 21.7 | 9.6 | 18.8 |
| CNC(=O)c1ccc2cc([C@@]3(O)CCn4cncc43)ccc2c1 [Orteronel] | 0 | 0 | 0 | 0 | 0 | 0 | 0 | 0 | 0 | 0 | 0 | 0 |
| C=CC(=O)Nc1cc(Nc2nccc(-c3cn(C)c4ccccc34)n2)c(OC)cc1N(C)CCN(C)C [Osimertinib] | 5.3 | 5.5 | 1.6 | 1.7 | 3.7 | 1.4 | 2.2 | 0.9 | 1.3 | 5.4 | 3.9 | 4.7 |
| O=C(O)C(=O)O.[NH-][C@@H]1CCCC[C@H]1[NH-].[Pt+2] [Oxaliplatin] | 11.4 | 9 | 7.8 | 8.5 | 6.8 | 6.9 | 0.2 | 6 | 5 | 11.8 | 6.8 | 10.7 |
| C=CCc1cccc(/C=N/NC(=O)CN2CCN(Cc3ccccc3)CC2)c1O [PAC-1] | 1.7 | 4 | 0.7 | 3 | 4 | 2.6 | 0.4 | 2.7 | 0.2 | 3.2 | 2.1 | 3.1 |
| O=C(Nc1cccnc1)N1CCC(Cc2cccc(Oc3ccc(C(F)(F)F)cn3)c2)CC1 [PF-3845] | 1 | 0 | 0 | 0.3 | 6.5 | 2 | 0 | 0 | 0 | 1.6 | 0 | 0 |
| COc1ccccc1S(=O)(=O)Nc1ccc2c(c1)CN(C)C(=O)N2 [PFI-1] | 5.7 | 8.2 | 2.6 | 4.4 | 4.8 | 5.5 | 3 | 4.3 | 3.1 | 7.2 | 8.7 | 3.1 |
| CN1CCN(c2cc(C(=O)Nc3ccc4c(c3)-c3c(c(C(N)=O)nn3-c3ccc(F)cc3)CC4)c(Cl)cn2)CC1 [PHA 408] | 0.5 | 6.2 | 6.1 | 4.3 | 2.4 | 0.1 | 0.6 | 4.8 | 0.7 | 6 | 1.8 | 6.5 |
